Source: publication PMC8536627, “Hydrolytic stability of anticancer drugs and one metabolite in the aquatic environment” (Environmental Science and Pollution Research International, 2021)
“Also recorded” adds a separate entry of the source. Read-outs that look alike come from different tables or passages of the source.

Assays:
physchem [1] = details: 5 days; for Degradation level in the preliminary test: dark
Method: The incubation was performed in the dark, in order to avoid the influence of the photolysis on degradation of the analytes. The water used for the preparation of buffers was autoclaved, all glassware was clean, flushed with methanol, and dried in high temperature. Samples were closed in glass tubes with a sealed cap. The air from above the solution was removed by a nitrogen stream just before capping. In the preliminary test, solutions of single analytes were prepared in each tested pH: 4, 7, and 9, which is required by the OECD guidelines. There was also a blank sample prepared for each pH. Samples in the preliminary test were prepared in two parallel replicates. Moreover, the complete preliminary test was repeated twice. The preliminary test was performed at 50 °C for 5 days. […] In the case of the extended tests, 7 measuring points were provided during the time of the test. Each measuring point was performed in two parallel replicates. […] The test was conducted for 30 days or to 90 % elimination of a compound. Obtained results were used to determine the hydrolysis rate constant (k) using equation: 1 lnCt/C0=kt
The HPLC-UV/Vis technique was applied to determine the level of hydrolytic degradation of the analytes. In the preliminary test, the control and blank samples were analyzed at the beginning and the end of the test. […] In the extended test, the samples collected in the time intervals were analyzed, and peak areas were compared to those obtained at the beginning of the test. This was used to determine the kinetic of this hydrolysis process by using the Equation 1. In general, each analyte was analyzed by a simple HPLC method with UV/Vis detection. Gemini C18 (Phenomenex, USA), 5 μm, 110 Å, 150 mm × 4.6 mm chromatographic column was applied for each method and three different mobile phases were used (water or 0.1 % HCOOH) mixed with the acetonitrile. The conditions applied during the LC-MS analysis with an ion trap detector for the qualitative analysis of the samples collected after the extended tests at 20 and 70 °C are presented in the Table S2.

physchem [2] = type: physicochemical
Method: Moreover, the complete preliminary test was repeated twice. […] Each measuring point was performed in two parallel replicates.
where t, time; ct, c0, concentration of the analyte at a time (0 means the beginning of the test); k, rate constant.
Based on this, the t1/2 was determined by using the equation: 2 t1/2=ln2/k
where t1/2, half-life of the analyte; k, rate constant.
The degradation was monitored for 30 days or until 90 % of a compound was degraded. Based on the obtained results (Fig. 4) the constant rates (k) and half-lives (t1/2) have been calculated (Table 1).
After determining the hydrolysis rate constants it was possible to calculate activation energy (Ea) of this process at each pH, either from plotting ln k from T^−1 (Figure 5) when there were three k values obtained for each compound and pH (CP at pH 4, 7, and 9 as well as IF at pH 4) or from the following equation (for IF at pH 7 and 9, where only two k values were obtained) (Table 1): 4 E=Rlnk2−lnk1/1/T1¯−1/T2
where R, gas constant (8.314 J/mol × K); k1, k2, rate constants for different temperatures; T, absolute temperature (K).

physchem [3] = type: physicochemical; details: for half-life: buffer, read-out: t½, extrapolated half-life (converted)
Method: By obtaining at least two rate constants for two different temperatures, it is possible to calculate the rate constants and, in consequence, half-lives at other temperatures, according to the Arrhenius equation: 3 k=A×e^−E/R×Torlnk=−E/R×T+lnA
Therefore, these equations were applied to extrapolate the obtained results and calculate the rate constants and half-lives of unstable anticancer drugs in more environmentally relevant temperatures (4, 10, or 15 °C), which are typical to natural waters.
Additionally, these observations confirm that CP is much more vulnerable for hydrolysis than IF, which is interesting how two isomers (like CP and IF) may differently undergo hydrolysis process. […] If the conclusions were drawn only based on the results from the preliminary experiments (incubation at 50 °C for 5 days), it would be assumed that both compounds, especially CP, are very unstable. […] Moreover, using Equation 3, it was possible to extrapolate the results to determine the rate constants and half-lives at the temperatures 4, 10, and 15 °C, which are ordinary for environmental waters (Table 2).

[4] = room temperature, ref Franquet-Griell et al. [2017], cited from earlier work
[5] = dark conditions, 20 °C, ref Buerge et al. ([2006]); cited from earlier work
[6] = 20 °C, ref Gilard et al. ([1994]), cited from earlier work
[7] = pH 7 and 8.1, 5 days, calculated; ref Booker et al. ([2014]); cited from earlier work
[8] = HPLC water with 4 % DMSO, ref Negreira et al. ([2013a]), cited from earlier work

O=P1(N(CCCl)CCCl)NCCCO1 (stereo not shown) [CP, cyclophosphamide]
Hydrolytic stability in the preliminary test (physchem [1]; pH 4, 7 and 9, 50 °C): unstable; also recorded: susceptible to hydrolysis | Degradation level in the preliminary test (physchem [1]; pH 4, 50 °C): completely eliminated | Degradation level in the preliminary test (physchem [1]; pH 7, 50 °C): 91.6% | Degradation level in the preliminary test (physchem [1]; pH 9, 50 °C): completely eliminated | Degradation of initial amount in 30 days (physchem [2]; 20 °C, 30 days, pH not specified (pH 4, 7, 9 tested)): around 20% | half-life (physchem [2]; 20 °C, all pH, read-out: Half-life (converted)): ~80 days | k, hydrolysis rate constant (physchem [2]; 20 °C, pH 4): 0.00035 h⁻¹ | k, hydrolysis rate constant (physchem [2]; 20 °C, pH 7): 0.00038 h⁻¹ | k, hydrolysis rate constant (physchem [2]; 20 °C, pH 9): 0.00037 h⁻¹ | k, hydrolysis rate constant (physchem [2]; 50 °C, pH 4): 0.025 h⁻¹ | k, hydrolysis rate constant (physchem [2]; 50 °C, pH 7): 0.024 h⁻¹ | k, hydrolysis rate constant (physchem [2]; 50 °C, pH 9): 0.024 h⁻¹ | half-life (physchem [2]; 50 °C, range over three pH values, read-out: t½, half-life (converted)): 1.15 to 1.23 days | k, hydrolysis rate constant (physchem [2]; 70 °C, pH 4): 0.27 h⁻¹ | k, hydrolysis rate constant (physchem [2]; 70 °C, pH 7): 0.28 h⁻¹ | k, hydrolysis rate constant (physchem [2]; 70 °C, pH 9): 0.27 h⁻¹ | half-life (physchem [2]; buffer, pH 4, 20 °C, pH 4, read-out: t½, half-life (converted)): 81.8 days | half-life (physchem [2]; buffer, pH 4, 50 °C, pH 4, read-out: t½, half-life (converted)): 1.15 days | half-life (physchem [2]; buffer, pH 4, 70 °C, pH 4, read-out: t½, half-life (converted)): 0.108 days | half-life (physchem [2]; buffer, pH 4, 70 °C, range over pH 4, 7, 9, read-out: t½, half-life (converted)): 0.104 to 0.108 days | half-life (physchem [2]; buffer, pH 7, 20 °C, pH 7, read-out: t½, half-life (converted)): 77.8 days | half-life (physchem [2]; buffer, pH 7, 50 °C, pH 7, read-out: t½, half-life (converted)): 1.23 days | half-life (physchem [2]; buffer, pH 7, 70 °C, pH 7, read-out: t½, half-life (converted)): 0.104 days | half-life (physchem [2]; buffer, pH 9, 20 °C, pH 9, read-out: t½, half-life (converted)): 78.9 days | half-life (physchem [2]; buffer, pH 9, 50 °C, pH 9, read-out: t½, half-life (converted)): 1.2 days | half-life (physchem [2]; buffer, pH 9, 70 °C, pH 9, read-out: t½, half-life (converted)): 0.104 days | Ea, activation energy of hydrolysis (physchem [2]; pH 4): 26.58 kcal/mol | Ea, activation energy of hydrolysis (physchem [2]; pH 7): 26.43 kcal/mol | Ea, activation energy of hydrolysis (physchem [2]; pH 9): 26.41 kcal/mol | Ea, activation energy of hydrolysis (physchem [2]; range over pH 4, 7, 9): 26.41 to 26.58 kcal/mol | k, extrapolated rate constant (physchem [3]; 4 °C, pH 4): 5.1e-05 h⁻¹ | k, extrapolated rate constant (physchem [3]; 4 °C, pH 7): 5.3e-05 h⁻¹ | k, extrapolated rate constant (physchem [3]; 4 °C, pH 9): 5.3e-05 h⁻¹ | k, extrapolated rate constant (physchem [3]; 10 °C, pH 4): 7.1e-05 h⁻¹ | k, extrapolated rate constant (physchem [3]; 10 °C, pH 7): 7.4e-05 h⁻¹ | k, extrapolated rate constant (physchem [3]; 10 °C, pH 9): 7.3e-05 h⁻¹ | k, extrapolated rate constant (physchem [3]; 15 °C, pH 4): 0.000161 h⁻¹ | k, extrapolated rate constant (physchem [3]; 15 °C, pH 7): 0.000166 h⁻¹ | k, extrapolated rate constant (physchem [3]; 15 °C, pH 9): 0.000166 h⁻¹ | half-life (physchem [3]; pH 4, 4 °C, pH 4): 568 days | half-life (physchem [3]; pH 4, 10 °C, pH 4): 406 days | half-life (physchem [3]; pH 4, 15 °C, pH 4): 179 days | half-life (physchem [3]; pH 7, 4 °C, pH 7): 549 days | half-life (physchem [3]; pH 7, 10 °C, pH 7): 393 days | half-life (physchem [3]; pH 7, 15 °C, pH 7): 174 days | half-life (physchem [3]; pH 9, 4 °C, pH 9): 550 days | half-life (physchem [3]; pH 9, 10 °C, pH 9): 394 days | half-life (physchem [3]; pH 9, 15 °C, pH 9): 174 days | Hydrolytic stability in milli-Q water ([4]; milli-Q water, natural pH): stable | Stability during a 48-h test in pure water ([4]; pure water, 48 h): stable | Half-life in lake water [5]: around 80 days | Initial concentration present after 7 days ([6]; pH 3.4–8.6, 7 days): over 95% | Maximum degradation after 17 days ([6]; pH 3.4–8.6, 17 days): ≤ 20% | Stability assessed with SPARC from molecular structure [7]: stable | Stability in 24 h test ([8]; 4 °C): stable | Long-term stability at 4 °C ([8]; 4 °C): stable for 1 month | Stability in 24 h test ([8]; 15 °C): still stable | Stability in 24 h test ([8]; 25 °C): remained stable
